Reference: PMC3689833, “Neurochemical Changes in the Mouse Hippocampus Underlying the Antidepressant Effect of Genetic Deletion of P2X7 Receptors” (PLoS ONE, 2013)

Key:
[1] = tested on: P2rx7+/+ and P2rx7−/− mice; assay: Sucrose preference test (SPT), LPS-induced anhedonia; format: in vivo, mouse; conditions: for inhibitory effect on LPS-induced anhedonia in P2rx7−/− mice: acute treatment; for effect on LPS-induced anhedonia in P2rx7−/− mice: subacute 4-day treatment, compared with P2rx7+/+
Description: The experiments were performed using the two-bottle sucrose preference paradigm. The decreased preference for sucrose vs. water in this test has been proposed to reflect impaired sensitivity towards reward and to model anhedonia. Mice were offered a choice of 2% sucrose solution or water during 12-hour nocturnal periods (starting at 19∶00). The bottles were weighed before and after each test session to monitor sucrose and water consumption. The relative position of the sucrose and water bottles were swapped every night to avoid place preferences. The baseline sucrose intake was measured under a habituation period of 3–4 days before administering the treatments, and the mean volume ingested over the last 3 training sessions was used as a baseline value. The sucrose consumption was measured for 4 consecutive nights after LPS (0.2 mg/kg i.p.) or saline administration and expressed as g/100 g body weight or as a percentage of the baseline (%).

[2] = tested on: BDNF level in hippocampal slices; assay: BDNF protein assay (ELISA), in vitro study in hippocampal slices; format: cell-based, mouse; conditions: for BDNF level in hippocampal slices in the presence of BzATP: + BzATP 100 µM, BBG 100 nM, DHPG 100 µM; for BDNF level in hippocampal slices in the presence of BzATP / effect on the inhibitory effect of BzATP on BDNF level / effect on basal BDNF level, compound alone (no BzATP): RO-256981 3 µM, MCPG 200 µM; for BDNF level in hippocampal slices, compound alone: RO-256981 3 µM 15 min, DHPG 100 µM 10 min; for effect on the inhibitory effect of BzATP on BDNF level / effect on basal BDNF level, compound alone (no BzATP): CNQX 10 µM, TCN-201 10 µM
Description: The P2rx7 wild type and knockout mice were anesthetized under light CO2 inhalation and decapitated. The hippocampus was dissected in ice-cold Krebs solution saturated with 95% O2 and 5% CO2, sectioned (400 µm thick slices) using a McIlwain tissue chopper and incubated in 2 ml of modified Krebs solution in the presence of 1 ml Hibernate medium, ascorbic acid (300 µM) and Na2EDTA (30 µM) for 60 min. The medium was bubbled continuously with 95% O2 and 5% CO2 and maintained at 37°C. The P2rx7 agonist, BzATP, was added to the incubation solution for 30 min, whereas BBG was applied 15 min before BzATP application. RO-256981, 6-cyano-7-nitroquinoxaline-2,3-dione (CNQX) and 3-Chloro-4-fluoro-N-[4[[2(phenylcarbonyl)hydrazino]carbonyl]benzyl] benzenesulfonamide (TCN-201) were applied for 15 min, while MCPG was administered for 30 min. The group I metabotropic glutamate receptor agonist, dihydroxyphenylglycine (DHPG), was administered for 10 min. The DHPG, MCPG, and RO-256981 dosages were chosen based on previous studies, [47], [48]. In the experiments with BzATP, Mg^2+ was omitted from the incubation solution. The hippocampal slices were collected, frozen on dry ice and stored at −70°C until further investigation. Each experimental group contained 3–4 mice.
At the time of analysis, the samples were removed from the freezer and weighed. The BDNF extraction procedure was performed in accordance with the methods of a previous study. For the BDNF assays, 2 ml lysis buffer (100 mM PIPES, pH 7, 500 mM NaCl, 0.2% Triton X-100, 0.1% NaN3, 2% BSA, 2 mM EDTA, 200 µM PMSF, 10 µg/mL aprotinin, 1 µg/mL leupeptin, and 0.5 mM sodium vanadate) was added to each sample, and the hippocampus was sonicated at power level 2 using pulses at 1 sec intervals for 10–15 sec. Subsequently, the samples were centrifuged at 16,000 × g for 30 min at 4°C. 100 µl aliquots of the resulting supernatants were removed and diluted with 400 µl of DPBS buffer (137 mM NaCl, 2.68 mM KCl, 1.47 mM KH2PO4, 8.1 mM Na2HPO4 (pH 7.35), 0.9 mM CaCl2·H2O, and 0.5 mM MgCl2·H2O). The supernatants were collected and stored at −70?C until further analysis. For the total free BDNF measurement, the samples were acid treated with 1 µl of 1 N HCl for each 50 µl of diluted samples to decrease the pH to 2.5, followed by incubation at room temperature for 15 min. The samples were neutralized with 1 µl of 1 N NaOH for each 50 µl of diluted samples. The levels of BDNF (both precursor and mature forms) expression were evaluated using an enzyme-linked immunosorbent assay (ELISA) kit and a BDNF Emax ImmunoAssay System (Promega Corporation, Madison, WI, USA), which is specific for mouse BDNF protein, according to the manufacturer’s instructions. The BDNF levels were calculated by plotting the optical density (OD) of each sample against the standard curve. A seven-point standard curve using two-fold serial dilutions in Reagent Diluent (according the manufacturer’s instructions) and a high standard of 500 pg/ml were used for the determination of BDNF levels. The assay detection limits were <15 pg/ml. Absorbance was measured at 450 nm using a Perkin-Elmer Victor 3V 1420 Multilabel Counter.

acute hippocampal slices = assay: [3H]Glutamate and endogenous glutamate release from acute hippocampal slices; format: cell-based, mouse
Description: The [^3H]Glu release experiments were conducted using the method described in our previous papers. Briefly, the mice were anaesthetized under light CO2 inhalation, and subsequently decapitated. The hippocampus was dissected from each mouse in ice-cold Krebs solution saturated with 95% O2 and 5% CO2, sectioned (400-µm-thick slices) using a McIlwain tissue chopper and incubated in 1 ml of modified Krebs solution (113 mM NaCl, 4.7 mM KCl, 2.5 mM CaCl2, 1.2 mM KH2PO4, 1.2 mM MgSO4, 25.0 mM NaHCO3, and 11.5 mM glucose), pH 7.4, in the presence of 5 µCi/ml [^3H]glutamic acid ([^3H]Glu, 9.8×10^−8 M, specific activity 51 Ci/mmol; Perkin Elmer) for 45 min. The medium was bubbled with 95% O2 and 5% CO2 and maintained at 32°C. After loading, the slices were continuously superfused with 95% O2 and 5% CO2-saturated modified Krebs solution (flow rate: 0.7 ml/min).
Subsequently, the perfused samples were collected over a 3-min period and measured for tritium content. At 6 min after the start of the collection, the slices were subjected to a 6-min perfusion of the agonist (ATP) at various concentrations (1, 3, 6 and 10 mM) and then changed to normal Krebs solution until the end of the collection period. In some experiments, the P2X1 receptor antagonist, NF449 (100 nM), or the selective P2rx7 antagonist Brilliant blue G (100 nM) was applied to the perfusion solution at 15 min before the beginning of the ATP perfusion.
The radioactivity released from the preparations was measured using a Packard 1900 Tricarb liquid scintillation spectrometer, using Ultima Gold Scintillation cocktail. The release of tritium was expressed as a percentage of the amount of radioactivity in the tissue at the sample collection time (fractional release). The tritium uptake in the tissue was determined as the sum of release+the tissue content after the experiment and expressed in Bq/g. For the evaluation of the basal tritium outflow the fractional release measured in four consecutive 3 min samples under drug free conditions were taken into account. The ATP-induced [^3H]Glu efflux calculated as the net release in response to the respective stimulus by subtracting the release before the stimulation from the values measured after stimulation. Selected samples collected under resting conditions and during the peak of the ATP-evoked response were subjected to further HPLC analyses.
The separation of pre-column dansylated amino acids was performed using a gradient elution-working mode at ambient temperature. The mobile phase A consisted of 5/95 (v/v) 78/22 acetonitrile/methanol in 15 mM ammonium formate buffer, and the mobile phase B was composed of 90/10 (v/v 78/22) acetonitrile/methanol in ammonium formate buffer, pH 3.7. The mobile phase B increased linearly (at 0.11 min to 50% 17 min to 72% and 26 min to 100%, followed by a final run to 54 min), the flow rate was 0.7 ml/min. The analytical and the trap column were equilibrated for 10 min, and enrichment and clean-up procedures were performed. The dansylated derivatives were detected using an absorbance detector (Agilent 1100) at a 319 nm wavelength. The retention time of the dansylated Glu was 11.4 min. Pre-column derivatization was performed by mixing 50 µl of dansyl chloride prepared by dissolving 5 mg 5-(dimethylamino)naphthalene-1-sulfonyl chloride in acetonitrile daily and adding 50 µl of 2 M sodium carbonate, which contained norvaline (20 µM) as an internal standard in 25 µl of sample. After a 10-min reaction time at 60°C, the mixture was acidified using 25 µl of 6 M formic acid and injected onto the “trap-column”.

[3] = P2rx7+/+ slices, BzATP 100 µM 30 min, Mg2+-free

## O=C(CC12CC3CC(CC(C3)C1)C2)Nc1cccc2nc(NCCNCCO)ccc12 [AZ-10606120]
[1]; P2rx7+/+ mice, acute injection 2 mg/kg i.p. 30 min before LPS, vs control
  amount of sucrose consumed on the 3rd day after LPS injection: significantly higher
[1]; P2rx7+/+ mice, subacute treatment 2 mg/kg i.p., vs control
  amount of sucrose consumed on the day after LPS injection: significantly higher
[1]
  inhibitory effect on LPS-induced anhedonia in P2rx7−/− mice: completely absent
  effect on LPS-induced anhedonia in P2rx7−/− mice: significantly attenuated

## NC(C(=O)O)c1cc(O)cc(O)c1 (stereo not shown) [DHPG, 3,5-dihydroxyphenylglycine]
[2]; P2rx7+/+ slices, Mg2+-free
  BDNF level in hippocampal slices in the presence of BzATP: 54.14 ± 1.92 pg/mL
[2]; P2rx7+/+ slices
  BDNF level in hippocampal slices, compound alone: 41.59 ± 0.40 pg/mL

## Nc1ncnc2c1ncn2[C@@H]1O[C@H](COP(=O)(O)OP(=O)(O)OP(=O)(O)O)[C@@H](OC(=O)c2ccc(C(=O)c3ccccc3)cc2)[C@H]1O [BzATP, 3′-O-(4-benzoyl-benzoyl)adenosine 5′-triphosphate]
[2]; [3]
  BDNF level in hippocampal slices: 13.85 ± 0.98 pg/mL
  decrease of basal BDNF level: 25.73%
[2]; P2rx7−/− slices, BzATP 100 µM, Mg2+-free
  effect on BDNF level: without significantly affecting

## O=C(NNC(=O)c1ccc(CNS(=O)(=O)c2ccc(F)c(Cl)c2)cc1)c1ccccc1 [TCN-201, 3-Chloro-4-fluoro-N-[4[[2(phenylcarbonyl)hydrazino]carbonyl]benzyl] benzenesulfonamide]
[2]; P2rx7+/+ slices, BzATP 100 µM
  effect on the inhibitory effect of BzATP on BDNF level: occluded
[2]; P2rx7+/+ slices
  effect on basal BDNF level, compound alone (no BzATP): unaffected

## O=C(Nc1cc(C(=O)Nc2ccc(S(=O)(=O)[O-])cc2S(=O)(=O)[O-])cc(C(=O)Nc2ccc(S(=O)(=O)[O-])cc2S(=O)(=O)[O-])c1)Nc1cc(C(=O)Nc2ccc(S(=O)(=O)[O-])cc2S(=O)(=O)[O-])cc(C(=O)Nc2ccc(S(=O)(=O)[O-])cc2S(=O)(=O)[O-])c1.[Na+].[Na+].[Na+].[Na+].[Na+].[Na+].[Na+].[Na+] [NF449, 4,4′,4′′,4′′′-[Carbonylbis(imino-5,1,3-benzenetriyl-bis(carbonylimino))]tetrakis-1,3-benzenedisulfonic acid, octasodium salt]
Acute hippocampal slices; P2rx7−/− slices, ATP 10 mM, antagonist 100 nM 15 min before ATP
  residual ATP-evoked [3H]Glu efflux in presence of antagonist: sensitive to inhibition

## C[C@@H](CN1CCC(Cc2ccccc2)CC1)[C@@H](O)c1ccc(O)cc1.O=C(O)/C=C\C(=O)O [RO-256981, (αR,βS)-α-(4-Hydroxyphenyl)-β-methyl-4-(phenylmethyl)-1-piperidinepropanol maleate]
[2]; P2rx7+/+ slices, Mg2+-free
  BDNF level in hippocampal slices in the presence of BzATP: 15.75 ± 0.44 pg/mL
[2]; P2rx7+/+ slices, BzATP 100 µM
  effect on the inhibitory effect of BzATP on BDNF level: occluded
[2]; P2rx7+/+ slices
  effect on basal BDNF level, compound alone (no BzATP): decreased
  BDNF level in hippocampal slices, compound alone: 15.20 ± 0.12 pg/mL

## CC(N)(C(=O)O)c1ccc(C(=O)O)cc1 (stereo not drawn) [MCPG, α-Methyl-4-carboxyphenylglycine]
[2]; P2rx7+/+ slices, Mg2+-free
  BDNF level in hippocampal slices in the presence of BzATP: 6.09 ± 1.17 pg/mL
[2]; P2rx7+/+ slices, BzATP 100 µM + MCPG 200 µM
  decrease of BDNF level in the presence of BzATP: 67.34%
[2]; P2rx7+/+ slices, BzATP 100 µM
  effect on the inhibitory effect of BzATP on BDNF level: did not antagonize
[2]; P2rx7+/+ slices
  effect on basal BDNF level, compound alone (no BzATP): significantly diminished

## CN(C)CCCC1(c2ccc(F)cc2)OCc2cc(C#N)ccc21 (stereo not shown) [citalopram]
[1]
  inhibitory effect on LPS-induced anhedonia in P2rx7−/− mice: largely preserved
  effect on LPS-induced anhedonia in P2rx7−/− mice: largely preserved

## N#Cc1cc2[nH]c(=O)c(=O)[nH]c2cc1[N+](=O)[O-] [CNQX, 6-cyano-7-nitroquinoxaline-2,3-dione]
[2]; P2rx7+/+ slices, BzATP 100 µM
  effect on the inhibitory effect of BzATP on BDNF level: occluded
[2]; P2rx7+/+ slices
  effect on basal BDNF level, compound alone (no BzATP): decreased

## Nc1ncnc2c1ncn2[C@@H]1O[C@H](COP(=O)(O)OP(=O)(O)OP(=O)(O)O)[C@@H](O)[C@H]1O [ATP]
Acute hippocampal slices; P2rx7+/+ slices, 10 mM ATP, 6-min perfusion
  net release of tritium ([3H]Glu, fractional release): 3.34±0.57%
Acute hippocampal slices; P2rx7+/+ slices, 10 mM ATP, peak vs resting
  endogenous glutamate level in effluent (HPLC): remarkable elevation
Acute hippocampal slices; P2rx7+/+ slices, 6-min perfusion, 1–10 mM
  efflux of [3H]Glu: concentration-dependent increase
Acute hippocampal slices; P2rx7−/− slices, 10 mM ATP
  net [3H]Glu efflux (fractional release): 0.25±0.43%
